Measured values: the supplement of paper PMC13386468
pIC50: −log10 of the molar value.

Key:
Test in all cases: IC50 for competition of protein binding to Kinobeads
Conditions in all cases: assay detail: Kinobeads competition in P. falciparum blood-stage lysate
UniProt Q8IJW0 = target: UniProt Q8IJW0
UniProt Q8IE18 = target: UniProt Q8IE18
UniProt O77396 = target: UniProt O77396
UniProt Q8I2P2 = target: UniProt Q8I2P2
UniProt Q8II79 = target: UniProt Q8II79
UniProt Q8IKH8 = target: UniProt Q8IKH8
UniProt C0H4S8 = target: UniProt C0H4S8
UniProt Q8IJN7 = target: UniProt Q8IJN7
UniProt Q7K6B0 = target: UniProt Q7K6B0
UniProt P50250 = target: UniProt P50250
UniProt Q8I305 = target: UniProt Q8I305
UniProt Q8I5C5 = target: UniProt Q8I5C5
UniProt Q8ILH5 = target: UniProt Q8ILH5
UniProt Q8I3T9 = target: UniProt Q8I3T9
UniProt Q8II61 = target: UniProt Q8II61
UniProt Q8II92 = target: UniProt Q8II92
UniProt Q8IKS6 = target: UniProt Q8IKS6
UniProt C6KTB3 = target: UniProt C6KTB3
UniProt Q8ILL3 = target: UniProt Q8ILL3
UniProt Q8IJZ3 = target: UniProt Q8IJZ3
UniProt Q8IDV5 = target: UniProt Q8IDV5
UniProt Q8IID5 = target: UniProt Q8IID5
UniProt Q8I1T4 = target: UniProt Q8I1T4
UniProt C0H4S5 = target: UniProt C0H4S5
UniProt Q8IK12 = target: UniProt Q8IK12
UniProt C6KT64 = target: UniProt C6KT64
UniProt Q8IDN9 = target: UniProt Q8IDN9
UniProt Q8IAW0 = target: UniProt Q8IAW0
UniProt O97250 = target: UniProt O97250
UniProt Q8I5A6 = target: UniProt Q8I5A6
UniProt Q8IM23 = target: UniProt Q8IM23
UniProt O97225 = target: UniProt O97225
UniProt Q8IL71 = target: UniProt Q8IL71
UniProt Q8IJJ0 = target: UniProt Q8IJJ0
UniProt Q8IM26 = target: UniProt Q8IM26
UniProt Q8I502 = target: UniProt Q8I502
UniProt Q8ILK1 = target: UniProt Q8ILK1
UniProt Q7K6A5 = target: UniProt Q7K6A5
UniProt Q8I5B6 = target: UniProt Q8I5B6
UniProt O96236 = target: UniProt O96236
UniProt Q8II22 = target: UniProt Q8II22
UniProt Q8IAU3 = target: UniProt Q8IAU3
UniProt Q8IHR5 = target: UniProt Q8IHR5
UniProt Q8I5K4 = target: UniProt Q8I5K4
UniProt Q8II27 = target: UniProt Q8II27
UniProt O77385 = target: UniProt O77385
UniProt Q8ILS0 = target: UniProt Q8ILS0
UniProt Q8IAL6 = target: UniProt Q8IAL6
UniProt Q8IID2 = target: UniProt Q8IID2
UniProt C0H5C2 = target: UniProt C0H5C2
UniProt Q8I1Q5 = target: UniProt Q8I1Q5

Measured: pIC50
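Further: native unpurified kinases from lysate captured on beads bearing immobilized kinase inhibitors, with bead-bound kinases quantified by mass spectrometry across compound doses.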

Chain of UniProt Q8IJN7 (Q8IJN7 whole entry): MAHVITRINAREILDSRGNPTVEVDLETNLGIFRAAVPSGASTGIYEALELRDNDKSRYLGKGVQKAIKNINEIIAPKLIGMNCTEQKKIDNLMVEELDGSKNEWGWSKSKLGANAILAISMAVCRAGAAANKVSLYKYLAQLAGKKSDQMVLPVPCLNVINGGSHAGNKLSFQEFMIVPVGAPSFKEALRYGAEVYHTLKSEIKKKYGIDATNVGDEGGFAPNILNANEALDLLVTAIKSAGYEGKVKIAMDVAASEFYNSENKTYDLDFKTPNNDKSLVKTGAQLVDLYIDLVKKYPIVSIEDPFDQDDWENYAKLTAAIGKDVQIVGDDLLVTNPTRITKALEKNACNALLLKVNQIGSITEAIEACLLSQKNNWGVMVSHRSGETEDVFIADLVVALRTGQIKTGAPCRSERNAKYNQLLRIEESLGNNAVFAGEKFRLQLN
Chain of UniProt Q7K6A5 (Q7K6A5 whole entry): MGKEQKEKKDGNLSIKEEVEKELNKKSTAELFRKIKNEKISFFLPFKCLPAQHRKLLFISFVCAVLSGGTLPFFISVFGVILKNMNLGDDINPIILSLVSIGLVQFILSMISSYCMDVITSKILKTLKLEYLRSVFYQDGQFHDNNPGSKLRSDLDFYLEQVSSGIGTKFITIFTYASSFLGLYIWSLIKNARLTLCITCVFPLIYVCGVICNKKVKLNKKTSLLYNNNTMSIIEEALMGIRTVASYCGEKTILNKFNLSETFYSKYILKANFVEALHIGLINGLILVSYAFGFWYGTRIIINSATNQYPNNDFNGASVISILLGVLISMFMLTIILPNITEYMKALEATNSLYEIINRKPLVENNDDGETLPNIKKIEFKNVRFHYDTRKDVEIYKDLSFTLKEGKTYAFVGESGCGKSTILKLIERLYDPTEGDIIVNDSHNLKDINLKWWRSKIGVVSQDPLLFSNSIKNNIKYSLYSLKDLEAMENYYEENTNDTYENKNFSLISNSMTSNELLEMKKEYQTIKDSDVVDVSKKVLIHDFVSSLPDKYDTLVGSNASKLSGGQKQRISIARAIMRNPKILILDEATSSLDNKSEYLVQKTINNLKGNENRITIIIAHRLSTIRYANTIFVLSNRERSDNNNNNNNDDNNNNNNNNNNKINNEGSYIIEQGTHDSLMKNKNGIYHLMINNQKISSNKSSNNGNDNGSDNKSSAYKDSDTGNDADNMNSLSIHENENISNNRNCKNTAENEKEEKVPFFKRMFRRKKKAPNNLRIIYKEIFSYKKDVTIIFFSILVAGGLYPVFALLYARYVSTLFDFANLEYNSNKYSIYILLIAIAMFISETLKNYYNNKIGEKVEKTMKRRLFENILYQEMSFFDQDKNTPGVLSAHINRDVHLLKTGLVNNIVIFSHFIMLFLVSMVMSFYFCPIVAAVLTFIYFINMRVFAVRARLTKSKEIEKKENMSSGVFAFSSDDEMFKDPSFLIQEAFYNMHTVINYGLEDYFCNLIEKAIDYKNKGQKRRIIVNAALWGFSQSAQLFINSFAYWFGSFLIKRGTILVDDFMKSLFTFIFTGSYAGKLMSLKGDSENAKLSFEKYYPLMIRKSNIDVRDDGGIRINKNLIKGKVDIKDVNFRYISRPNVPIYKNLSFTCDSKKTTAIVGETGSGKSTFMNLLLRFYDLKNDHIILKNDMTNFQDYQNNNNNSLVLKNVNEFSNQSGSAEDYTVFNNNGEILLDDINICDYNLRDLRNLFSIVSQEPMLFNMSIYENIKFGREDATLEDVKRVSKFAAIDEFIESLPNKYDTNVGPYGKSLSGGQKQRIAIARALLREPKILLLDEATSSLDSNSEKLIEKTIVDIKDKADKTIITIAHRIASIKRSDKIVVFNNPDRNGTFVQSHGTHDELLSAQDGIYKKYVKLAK
Chain of UniProt P50250 (P50250 whole entry): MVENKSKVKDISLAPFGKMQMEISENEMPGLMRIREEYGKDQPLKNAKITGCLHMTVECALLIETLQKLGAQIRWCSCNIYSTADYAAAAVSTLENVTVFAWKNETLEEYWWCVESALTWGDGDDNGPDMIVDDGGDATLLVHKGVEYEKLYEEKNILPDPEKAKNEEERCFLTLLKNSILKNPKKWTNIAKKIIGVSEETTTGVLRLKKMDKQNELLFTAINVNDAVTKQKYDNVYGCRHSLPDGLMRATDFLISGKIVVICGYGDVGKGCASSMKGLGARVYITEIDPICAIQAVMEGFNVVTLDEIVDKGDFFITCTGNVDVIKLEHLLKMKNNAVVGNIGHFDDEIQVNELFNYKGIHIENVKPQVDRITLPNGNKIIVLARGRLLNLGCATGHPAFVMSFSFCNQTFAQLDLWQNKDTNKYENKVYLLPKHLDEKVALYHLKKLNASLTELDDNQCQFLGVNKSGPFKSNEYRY

O=c1[nH]c2ccc(Cl)cc2c(NC2CN3CCC2CC3)c1-c1nc2ccccc2[nH]1 (stereo unspecified) [CHIR-124]
< 4.70: UniProt Q8IJW0 | UniProt Q8IE18 | UniProt O77396 | UniProt Q8I2P2 | UniProt Q8II79 | UniProt Q8IKH8 | UniProt C0H4S8 | UniProt Q8IJN7 | UniProt Q7K6B0 | UniProt P50250 | UniProt Q8I305 | UniProt Q8I5C5 | UniProt Q8ILH5 | UniProt Q8I3T9 | UniProt Q8II61 | UniProt Q8II92 | UniProt Q8IKS6 | UniProt C6KTB3 | UniProt Q8ILL3 | UniProt Q8IJZ3 | UniProt Q8IDV5 | UniProt Q8IID5 | UniProt Q8I1T4 | UniProt C0H4S5 | UniProt Q8IK12 | UniProt C6KT64 | UniProt Q8IDN9 | UniProt Q8IAW0 | UniProt O97250 | UniProt Q8I5A6 | UniProt Q8IM23 | UniProt O97225 | UniProt Q8IL71 | UniProt Q8IJJ0 | UniProt Q8IM26 | UniProt Q8I502 | UniProt Q8ILK1 | UniProt Q7K6A5 | UniProt Q8I5B6 | UniProt O96236 | UniProt Q8II22 | UniProt Q8IAU3 | UniProt Q8IHR5 | UniProt Q8I5K4 | UniProt Q8II27 | UniProt O77385 | UniProt Q8ILS0 | UniProt Q8IAL6 | UniProt Q8IID2 | UniProt C0H5C2 | UniProt Q8I1Q5
